Numbers after ± are expanded uncertainties.
Conditions: 101.33 kPa, Liquid

CCCCn1cc[n+](C)c1.F[P-](F)(F)(F)(F)F [1-butyl-3-methylimidazolium hexafluorophosphate]
mass density (283.13 K): 1380.43 ± 1.4 kg/m3
mass density (293.12 K): 1372.15 ± 1.4 kg/m3
mass density (293.3 K): 1371.88 ± 1.4 kg/m3
mass density (302.83 K): 1363.87 ± 1.4 kg/m3
mass density (303.3 K): 1363.48 ± 1.4 kg/m3
mass density (312.68 K): 1355.45 ± 1.3 kg/m3
mass density (313.17 K): 1355.18 ± 1.3 kg/m3
mass density (322.64 K): 1347.23 ± 1.3 kg/m3
mass density (323.23 K): 1346.72 ± 1.3 kg/m3
mass density (332.56 K): 1338.7 ± 1.3 kg/m3
mass density (333.66 K): 1337.95 ± 1.3 kg/m3
mass density (342.41 K): 1330.79 ± 1.3 kg/m3
mass density (343.27 K): 1329.87 ± 1.3 kg/m3
